Consider 5 compounds from ChEMBL document CHEMBL5465560, “Selectivity Literature for EUbOPEN Chemogenomic Library” (2024).

Assay [1] deals with MAP kinase-interacting serine/threonine-protein kinase 2 (Homo sapiens, UniProt Q9HBH9). In words: Selectivity interaction (Upstate Kinase Profiler service (Millipore)) EUB0000056c MKNK2. As to conditions: at 1 µM.
Assay [2] deals with Protein kinase C beta type (Homo sapiens, UniProt P05771). Description: Selectivity interaction (Upstate Kinase Profiler service (Millipore)) EUB0000056c PRKCB. The following applies: at 1 µM.
The target in assay [3] is Maternal embryonic leucine zipper kinase (Homo sapiens) (UniProt Q14680). In words: Selectivity interaction (KinomeScan (DiscoverX)) EUB0001049a MELK. As to conditions: at 1 µM.
Assay [4] concerns the target T1, cGMP-dependent protein kinase 2 (Homo sapiens) (UniProt Q13237).
T1 sequence (whole entry): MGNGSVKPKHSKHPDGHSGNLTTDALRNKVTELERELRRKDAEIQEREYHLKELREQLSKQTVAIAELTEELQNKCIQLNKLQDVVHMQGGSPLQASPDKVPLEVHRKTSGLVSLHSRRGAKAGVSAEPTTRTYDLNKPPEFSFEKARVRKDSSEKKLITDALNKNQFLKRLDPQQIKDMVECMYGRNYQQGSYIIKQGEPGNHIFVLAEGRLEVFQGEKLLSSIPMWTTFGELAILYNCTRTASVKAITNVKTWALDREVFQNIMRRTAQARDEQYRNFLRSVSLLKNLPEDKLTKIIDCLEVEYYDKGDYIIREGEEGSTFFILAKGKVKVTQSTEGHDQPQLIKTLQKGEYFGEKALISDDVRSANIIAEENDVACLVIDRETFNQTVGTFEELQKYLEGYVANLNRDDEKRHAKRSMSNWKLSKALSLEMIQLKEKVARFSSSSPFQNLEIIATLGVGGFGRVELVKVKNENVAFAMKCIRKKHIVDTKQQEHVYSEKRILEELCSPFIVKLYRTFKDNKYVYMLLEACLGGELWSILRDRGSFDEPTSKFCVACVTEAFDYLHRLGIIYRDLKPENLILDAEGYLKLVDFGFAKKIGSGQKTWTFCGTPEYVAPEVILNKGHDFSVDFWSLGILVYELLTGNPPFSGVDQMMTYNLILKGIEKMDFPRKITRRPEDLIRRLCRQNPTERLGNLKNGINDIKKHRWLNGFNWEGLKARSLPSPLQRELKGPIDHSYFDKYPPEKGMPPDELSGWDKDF
Description: Selectivity interaction (KinomeScan (DiscoverX)) EUB0000666a PRKG2. The following applies: at 10 µM.

Assay [5] concerns the target T2, Cytoplasmic tyrosine-protein kinase BMX (Homo sapiens) (UniProt P51813).
T2 sequence (whole entry): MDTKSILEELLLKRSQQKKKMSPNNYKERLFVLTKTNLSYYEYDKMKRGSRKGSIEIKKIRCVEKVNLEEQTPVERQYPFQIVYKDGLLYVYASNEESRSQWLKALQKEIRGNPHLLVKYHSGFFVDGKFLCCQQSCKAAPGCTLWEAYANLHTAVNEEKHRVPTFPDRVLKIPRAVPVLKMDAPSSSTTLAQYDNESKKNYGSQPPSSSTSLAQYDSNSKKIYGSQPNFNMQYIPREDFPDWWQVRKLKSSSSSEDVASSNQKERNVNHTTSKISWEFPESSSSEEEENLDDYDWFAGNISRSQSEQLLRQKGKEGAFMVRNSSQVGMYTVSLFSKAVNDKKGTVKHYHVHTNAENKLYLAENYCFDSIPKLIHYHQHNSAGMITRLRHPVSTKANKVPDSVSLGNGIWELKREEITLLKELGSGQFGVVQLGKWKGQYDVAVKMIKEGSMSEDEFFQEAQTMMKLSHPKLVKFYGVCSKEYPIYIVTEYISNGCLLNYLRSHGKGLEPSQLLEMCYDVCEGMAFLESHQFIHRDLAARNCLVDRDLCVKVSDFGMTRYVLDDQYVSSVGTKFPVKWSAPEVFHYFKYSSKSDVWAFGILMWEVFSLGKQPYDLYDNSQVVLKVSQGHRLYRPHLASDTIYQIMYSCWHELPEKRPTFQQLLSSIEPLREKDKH
In words: Selectivity interaction (KinomeScan (DiscoverX)) EUB0001619a BMX. As to conditions: at 1 µM.

Assay [6] has as its target Tyrosine-protein kinase JAK1 (Homo sapiens, UniProt P23458). Description: Selectivity interaction (KinomeScan (DiscoverX)) EUB0001619a JAK1. As to conditions: at 1 µM.
Assay [7] addresses T3, Serine/threonine-protein kinase Nek1 (Homo sapiens) (UniProt Q96PY6).
T3 sequence (whole entry): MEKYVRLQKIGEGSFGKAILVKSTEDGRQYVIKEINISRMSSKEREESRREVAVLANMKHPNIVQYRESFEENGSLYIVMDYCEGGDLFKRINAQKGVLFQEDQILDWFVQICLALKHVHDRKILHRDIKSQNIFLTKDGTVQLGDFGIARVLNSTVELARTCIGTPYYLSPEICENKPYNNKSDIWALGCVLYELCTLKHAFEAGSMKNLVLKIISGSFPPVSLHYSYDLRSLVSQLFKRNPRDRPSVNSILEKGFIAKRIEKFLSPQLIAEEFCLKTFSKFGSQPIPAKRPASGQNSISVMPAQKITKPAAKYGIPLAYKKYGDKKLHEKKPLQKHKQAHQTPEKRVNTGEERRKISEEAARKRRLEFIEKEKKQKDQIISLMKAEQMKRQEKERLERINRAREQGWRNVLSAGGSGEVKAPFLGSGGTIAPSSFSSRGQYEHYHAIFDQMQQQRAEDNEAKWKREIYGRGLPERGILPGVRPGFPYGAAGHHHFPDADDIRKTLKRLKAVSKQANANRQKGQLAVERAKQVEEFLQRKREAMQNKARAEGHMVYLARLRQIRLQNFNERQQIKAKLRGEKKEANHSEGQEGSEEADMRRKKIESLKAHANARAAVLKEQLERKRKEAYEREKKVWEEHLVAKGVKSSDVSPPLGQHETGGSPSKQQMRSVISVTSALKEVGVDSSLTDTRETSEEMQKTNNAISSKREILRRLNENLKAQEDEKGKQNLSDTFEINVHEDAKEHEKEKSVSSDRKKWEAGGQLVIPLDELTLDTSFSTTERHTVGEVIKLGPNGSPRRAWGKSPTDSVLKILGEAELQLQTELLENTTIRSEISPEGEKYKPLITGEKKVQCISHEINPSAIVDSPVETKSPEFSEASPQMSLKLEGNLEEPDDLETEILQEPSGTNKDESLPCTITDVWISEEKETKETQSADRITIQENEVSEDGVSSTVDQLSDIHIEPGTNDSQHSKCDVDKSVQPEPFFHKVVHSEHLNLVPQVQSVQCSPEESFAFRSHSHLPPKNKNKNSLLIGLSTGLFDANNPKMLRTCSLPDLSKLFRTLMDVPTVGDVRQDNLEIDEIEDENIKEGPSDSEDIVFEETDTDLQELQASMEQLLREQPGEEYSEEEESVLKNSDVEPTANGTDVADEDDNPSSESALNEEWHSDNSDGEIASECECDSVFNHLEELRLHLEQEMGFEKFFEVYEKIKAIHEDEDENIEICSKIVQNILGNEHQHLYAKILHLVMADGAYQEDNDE
Description: Selectivity interaction (Kinase panel (KiNativ target engagement assay in Jurkat cells)) EUB0001635a NEK1. Format: cell-based. As to conditions: at 1 µM.

Sequence of Protein kinase C beta type (P05771 2-671 limits assumed): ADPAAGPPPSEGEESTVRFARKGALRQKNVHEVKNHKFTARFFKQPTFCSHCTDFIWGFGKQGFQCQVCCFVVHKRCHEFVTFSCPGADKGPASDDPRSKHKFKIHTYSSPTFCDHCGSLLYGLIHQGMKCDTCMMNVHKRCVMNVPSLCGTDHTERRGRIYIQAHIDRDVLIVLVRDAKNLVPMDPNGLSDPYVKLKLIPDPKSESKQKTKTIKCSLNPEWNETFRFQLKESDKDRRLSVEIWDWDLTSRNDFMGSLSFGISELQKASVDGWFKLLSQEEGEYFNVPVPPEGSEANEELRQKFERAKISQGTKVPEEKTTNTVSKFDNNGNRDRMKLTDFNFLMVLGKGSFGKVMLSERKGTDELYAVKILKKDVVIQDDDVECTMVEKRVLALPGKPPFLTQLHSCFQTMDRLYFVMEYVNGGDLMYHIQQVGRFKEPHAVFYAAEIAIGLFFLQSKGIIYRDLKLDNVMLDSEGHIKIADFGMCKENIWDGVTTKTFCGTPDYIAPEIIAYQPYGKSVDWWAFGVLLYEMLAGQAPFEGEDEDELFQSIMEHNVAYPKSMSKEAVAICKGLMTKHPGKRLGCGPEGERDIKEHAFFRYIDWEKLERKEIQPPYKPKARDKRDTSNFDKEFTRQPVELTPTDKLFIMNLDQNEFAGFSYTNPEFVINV
Sequence of Maternal embryonic leucine zipper kinase (Homo sapiens) (Q14680 whole entry, looked up): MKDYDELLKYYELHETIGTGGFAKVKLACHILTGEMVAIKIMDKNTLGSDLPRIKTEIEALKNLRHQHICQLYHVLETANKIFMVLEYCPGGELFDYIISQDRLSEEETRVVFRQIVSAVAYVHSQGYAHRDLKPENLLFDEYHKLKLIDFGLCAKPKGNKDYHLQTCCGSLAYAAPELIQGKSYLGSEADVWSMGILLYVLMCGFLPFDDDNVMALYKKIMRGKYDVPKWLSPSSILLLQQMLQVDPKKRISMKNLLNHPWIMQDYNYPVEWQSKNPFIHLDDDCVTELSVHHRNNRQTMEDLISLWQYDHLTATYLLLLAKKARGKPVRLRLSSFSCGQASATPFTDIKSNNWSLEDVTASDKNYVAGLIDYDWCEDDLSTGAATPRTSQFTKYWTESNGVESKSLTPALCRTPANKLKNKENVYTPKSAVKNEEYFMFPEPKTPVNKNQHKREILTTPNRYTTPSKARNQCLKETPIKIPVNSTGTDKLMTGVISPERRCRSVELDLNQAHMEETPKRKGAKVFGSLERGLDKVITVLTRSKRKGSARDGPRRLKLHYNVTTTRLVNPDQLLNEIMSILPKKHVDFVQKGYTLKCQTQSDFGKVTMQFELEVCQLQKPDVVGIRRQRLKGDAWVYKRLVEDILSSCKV
Sequence of Tyrosine-protein kinase JAK1 (P23458 whole entry): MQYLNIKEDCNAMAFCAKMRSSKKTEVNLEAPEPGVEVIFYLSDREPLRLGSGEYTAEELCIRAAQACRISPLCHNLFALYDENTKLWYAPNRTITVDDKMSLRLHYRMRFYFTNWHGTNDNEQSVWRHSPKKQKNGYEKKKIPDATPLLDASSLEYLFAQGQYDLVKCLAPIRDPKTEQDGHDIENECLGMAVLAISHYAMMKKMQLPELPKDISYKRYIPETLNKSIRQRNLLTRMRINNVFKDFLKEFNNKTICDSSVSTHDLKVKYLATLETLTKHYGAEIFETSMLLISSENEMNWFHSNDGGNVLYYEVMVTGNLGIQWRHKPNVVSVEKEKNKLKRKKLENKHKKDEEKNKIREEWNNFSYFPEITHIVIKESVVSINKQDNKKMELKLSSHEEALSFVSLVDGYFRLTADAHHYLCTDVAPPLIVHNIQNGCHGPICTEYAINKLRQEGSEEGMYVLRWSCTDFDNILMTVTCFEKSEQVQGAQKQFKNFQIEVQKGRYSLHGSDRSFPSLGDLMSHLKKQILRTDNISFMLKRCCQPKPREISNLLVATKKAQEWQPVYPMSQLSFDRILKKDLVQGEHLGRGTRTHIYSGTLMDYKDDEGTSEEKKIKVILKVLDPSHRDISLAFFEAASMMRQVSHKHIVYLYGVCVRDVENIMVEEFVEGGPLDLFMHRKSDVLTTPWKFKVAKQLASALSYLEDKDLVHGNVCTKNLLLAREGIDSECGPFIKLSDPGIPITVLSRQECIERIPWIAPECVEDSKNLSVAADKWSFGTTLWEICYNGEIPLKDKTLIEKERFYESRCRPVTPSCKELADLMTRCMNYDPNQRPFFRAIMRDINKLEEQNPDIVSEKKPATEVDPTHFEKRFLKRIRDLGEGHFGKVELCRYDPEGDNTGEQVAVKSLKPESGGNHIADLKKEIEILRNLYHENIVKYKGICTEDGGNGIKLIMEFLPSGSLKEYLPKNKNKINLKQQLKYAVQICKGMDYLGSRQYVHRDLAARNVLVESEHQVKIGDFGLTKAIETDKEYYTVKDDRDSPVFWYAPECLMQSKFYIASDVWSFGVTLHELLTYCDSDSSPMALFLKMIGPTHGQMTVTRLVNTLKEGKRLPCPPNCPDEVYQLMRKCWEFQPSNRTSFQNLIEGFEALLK
Sequence of MAP kinase-interacting serine/threonine-protein kinase 2 (Q9HBH9 whole entry, looked up): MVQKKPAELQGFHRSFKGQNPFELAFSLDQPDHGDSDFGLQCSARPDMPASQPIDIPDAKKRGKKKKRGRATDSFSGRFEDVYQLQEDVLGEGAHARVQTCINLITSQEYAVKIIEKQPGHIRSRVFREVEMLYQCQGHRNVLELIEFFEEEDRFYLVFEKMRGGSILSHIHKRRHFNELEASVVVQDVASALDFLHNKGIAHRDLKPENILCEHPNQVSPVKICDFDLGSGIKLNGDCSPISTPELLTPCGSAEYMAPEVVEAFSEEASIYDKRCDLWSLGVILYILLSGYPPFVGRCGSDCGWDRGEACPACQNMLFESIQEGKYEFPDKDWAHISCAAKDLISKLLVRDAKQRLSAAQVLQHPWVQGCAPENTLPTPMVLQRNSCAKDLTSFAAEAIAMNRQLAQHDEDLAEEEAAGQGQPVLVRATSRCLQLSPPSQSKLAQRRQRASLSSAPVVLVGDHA

For `Cc1ccc(-c2ccc3c(ccc4sc5c(c43)NC[C@@H](C)NC5=O)n2)cn1`, the % of inhibition came to 85% in assay [1] and 8% in assay [2].
The compound `COc1cc(Nc2nc(C)cc(-c3cnn4nc(OC)ccc34)n2)cc(C(F)(F)F)c1` yielded a % of control in assay [3] of 97%.
`O=C(NOC[C@H](O)CO)c1ccc(F)c(F)c1Nc1ccc(I)cc1F` returned a % of control in assay [4] of 86%.
Regarding `N#Cc1cccc(-c2c[nH]c3ncnc(N4CCOCC4)c23)c1`, the % of control is 97% in assay [5] and 94% in assay [6].
`C=CC(=O)Nc1ccc(C(=O)Nc2[nH]nc3c2CN(C(=O)N[C@H](CN(C)C)c2ccccc2)C3(C)C)cc1`: the % of engagement in assay [7] was -2.5%.
